# Results reported in ChEMBL document CHEMBL1131178, “Novel disaccharide inhibitors of human glioma cell division” (1998).
# System: C6
# Assay: Inhibitory activity against rat C6 Glioma cells stimulated with Fetal bovine serum; Not detectable
# Type: functional, cell-based
row,Structure (SMILES),ID50
1,CCCCCCCCO[C@H]1O[C@@H](COCC(CO)(CO)COS(=O)(=O)O)C(O)[C@H](O[C@@H]2O[C@@H](C)[C@@H](O)[C@H](O)[C@@H]2O)[C@@H]1NC(C)=O (some centres undefined),Not detectable
2,CCCCCCCCOC1OC(COCC(CO)(CO)CO)C(O)C(OC2OC(C)C(O)C(O)C2O)C1NC(C)=O (centres undefined),Not detectable
3,CCCCCCCCO[C@H]1O[C@@H](CO)[C@@H](OCC(CO)(CO)COS(=O)(=O)O)[C@H](O[C@@H]2OC(C)[C@@H](O)[C@H](O)[C@@H]2O)[C@@H]1NC(C)=O (some centres undefined),Not detectable
4,CCCCCCCCO[C@H]1O[C@@H](COCC(CO)(CO)COS(=O)(=O)O)[C@@H](OCC(CO)(CO)COS(=O)(=O)O)[C@H](O[C@@H]2O[C@@H](C)[C@@H](O)[C@H](O)[C@@H]2O)[C@@H]1NC(C)=O,Not detectable
